In the NIST ThermoML archive (doi:10.1021/je050231r):
Numbers after ± are expanded uncertainties. One block for each compound: values may come before it.

Details: Liquid; for mass density: 293.2 K, 101.33 kPa

mass density: 876.53 ± 0.19 kg/m3 | vapor or sublimation pressure (354.4 K): 101.77 ± 5.1 kPa
Compound: c1ccccc1 [benzene]

mass density: 1022.27 ± 0.27 kg/m3 | vapor or sublimation pressure (358.4 K): 101.94 ± 5.1 kPa
Compound: Fc1ccccc1 [fluorobenzene]

Compound: BrCCBr [1,2-dibromoethane]
mass density: 2179.24 ± 2.4 kg/m3 | vapor or sublimation pressure (404.6 K): 101.81 ± 0.62 kPa | vapor or sublimation pressure (405.4 K): 102.09 ± 0.52 kPa | vapor or sublimation pressure (405.5 K): 102.11 ± 0.52 kPa | vapor or sublimation pressure (405.8 K): 101.86 ± 0.98 kPa

Compound: Brc1ccccc1 [bromobenzene]
mass density: 1495.23 ± 1.2 kg/m3 | vapor or sublimation pressure (429.4 K): 101.76 ± 2.6 kPa

Compound: Cc1ccccc1 [toluene]
mass density: 866.81 ± 0.28 kg/m3 | vapor or sublimation pressure (384.9 K): 102.09 ± 5.1 kPa
